Source: patent US10085933B2, “Cosmetic use of an essential oil of Laserpitium siler L. for keratin materials” (L'OREAL, priority 2013, dated 2018)

Test system: dermal capillaries of normal human skin maintained alive
Experiment: Vascular modulation (vasodilation/vasoconstriction) in a model of normal human skin maintained alive; histological morphometry of dermal capillaries
Type: cell-based
Details: 1 μM noradrenalin in culture medium, 48 hours organ culture; for percentage of dilated vessels (dilated capillaries): mean of six skin samples, control skin 74.8 ± 20.8; for mean area occupied by the lumen of the blood vessels (capillaries) in the dermis: control skin 153.6 ± 74.4
Description: The object of this study is to analyse the effect on vascular modulation, namely vasodilation or vasoconstriction, of the essential oil of Laserpitium siler L. evaluated in a model of normal human skin maintained alive.
The analyses are histological by morphometric quantification of the calibre of the dermal capillaries and semi-quantitative evaluation of the oedema.
Fragments of normal human skin are obtained from a plastic surgery. They are placed in inserts, which are themselves positioned on culture wells. Culture medium specifically adapted to survival maintenance is added to the bottom of the wells, a passage being made by slow diffusion between the two compartments via a porous membrane (3 μm).
The second positive control consisted in adding 1 μM noradrenalin to the culture medium so as to obtain vasoconstriction of the dermal capillaries.
The essential oil of Laserpitium siler L. at the test concentrations dissolved in ethanol is added to the culture medium.
The skin fragments are then maintained in organ culture for 48 hours in an oven under a humid atmosphere, at 37° C. and in the presence of 5% CO2.
The skin fragments are fixed in Bouin liquid and included in paraffin. After staining with haemalum-eosin, two criteria are evaluated on the dermis: the oedema and the calibre of the capillaries.
After staining with haemalum-eosin, the vascular dilation is evaluated by counting the number of dilated blood vessels on the entire histological slice (16 fields at magnification 40). This number is carried over to the total number of blood vessels in order to calculate the percentage of dilated vessels.
Moreover, a morphometric analysis of the area (μm^2) occupied by the lumen of the blood vessels was performed in order to determine the mean area (μm^2) occupied in the dermis by the vessels.
A mean is calculated for each parameter from the results obtained on the six skin samples. The statistical analysis was performed via the “reduced deviation” Student test or paired-samples test, with a risk a of 5%.

## NC[C@H](O)c1ccc(O)c(O)c1 [noradrenalin]
  percentage of dilated vessels (dilated capillaries): 52.5 ± 20.6%
  mean area occupied by the lumen of the blood vessels (capillaries) in the dermis: 93.7 ± 65.7 μm^2
Listed as Noradrenalin
  percentage of dilated vessels (dilated capillaries): 52.5%
  mean area occupied by the lumen of the blood vessels (capillaries) in the dermis: 93.7 μm^2
